Values quoted from earlier work as cited in publication PMC10892719 (Pharmaceutics, 2024).

Molecular target: T1, Aβ1-42 (Homo sapiens, UniProt P05067)
T1 construct: purchased Genecust, Boynes, France
Conditions: thioflavin T fluorescence method; cited from earlier work

T1 sequence (P05067 672-713 limits assumed): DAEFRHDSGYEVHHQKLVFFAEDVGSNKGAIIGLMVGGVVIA

Q: With COc1cc(/C=C/C(=O)CC(=O)/C=C/c2ccc(O)c(OC)c2)ccc1O [Curcumin, curcumin] as the compound, how does the “Aβ42 Self-Aggreg. Inhib” value read?
A: 65.7%
